Assay results published in patent publication EP0799188B1, “AMIDES OF MONO AND DICARBOXYLIC ACIDS WITH GLYCOSAMINES, SELECTIVELY ACTIVE ON THE CANNABINOID PERIPHERAL RECEPTOR” (LIFEGROUP S.p.A., priority 1994, dated 1996).
“And” between values parts separate entries of the source, which are not always exact repeats. Equal values may be shown once. Read-outs that look alike come from different tables or passages of the source.

What was measured:
CB2 receptor [1] = target: T1, CB2 receptor (Rattus norvegicus, UniProt Q9QZN9); assay: 3H-WIN 55,212-2 binding displacement on RBL-2H3 cell membranes; conditions: for Displacement (%) / Specific binding: competitor 10 µM, amides in 0.1% DMSO, Anandamide and Nabilone in 0.1% ethanol; for IC50: RBL-2H3 cell membranes, 1% DMSO, means ± SEM
T1 construct: 30 µg membrane proteins prepared in item a); endogenous in cells; host or cells: RBL-2H3 cells (plasma membrane preparation)
T1 sequence (Q9QZN9 1-360): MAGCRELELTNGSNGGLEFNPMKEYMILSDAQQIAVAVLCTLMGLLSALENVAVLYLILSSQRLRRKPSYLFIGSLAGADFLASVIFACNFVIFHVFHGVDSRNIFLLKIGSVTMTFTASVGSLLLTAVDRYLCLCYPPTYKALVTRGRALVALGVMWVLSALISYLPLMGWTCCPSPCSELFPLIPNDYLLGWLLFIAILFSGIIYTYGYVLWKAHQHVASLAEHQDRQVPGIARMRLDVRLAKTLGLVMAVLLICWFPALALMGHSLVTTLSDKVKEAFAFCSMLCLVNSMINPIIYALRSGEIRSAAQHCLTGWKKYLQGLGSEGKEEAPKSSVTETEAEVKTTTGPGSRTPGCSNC

RBL-2H3 cells = assay: 3H-serotonin release induced by ADNP/DNP.HSA immunogenic stimulation; type: cell-based, rat; conditions: for effect on serotonin release (RBL cells immunogenic activation): statement in words on Table 3; for inhibition at 10 µM: RBL-2H3, 10µM, read-out: 3H-serotonin net release inhibition (%); for inhibition at 100 µM: RBL-2H3, DMSO 1%; for inhibition at 5 µM: RBL-2H3, read-out: 3H-serotonin net release inhibition (%), 5µM
[2] = tested on: cerebellar granule cell culture; assay: neuroprotective effect against glutamate-induced cell death (MTT); type: cell-based, mouse; conditions: for EC50: glutamate 500 µM for 5 minutes, compound added for 10 minutes, 15 minutes after removing glutamate, MTT after 24 hours, means ± SEM
CB2 receptor [3] = target: CB2 receptor (Homo sapiens, UniProt P34972); conditions: CB2 versus CB1 central receptor; cited from earlier work
Chain of CB2 receptor (Homo sapiens, UniProt P34972) (P34972 whole entry): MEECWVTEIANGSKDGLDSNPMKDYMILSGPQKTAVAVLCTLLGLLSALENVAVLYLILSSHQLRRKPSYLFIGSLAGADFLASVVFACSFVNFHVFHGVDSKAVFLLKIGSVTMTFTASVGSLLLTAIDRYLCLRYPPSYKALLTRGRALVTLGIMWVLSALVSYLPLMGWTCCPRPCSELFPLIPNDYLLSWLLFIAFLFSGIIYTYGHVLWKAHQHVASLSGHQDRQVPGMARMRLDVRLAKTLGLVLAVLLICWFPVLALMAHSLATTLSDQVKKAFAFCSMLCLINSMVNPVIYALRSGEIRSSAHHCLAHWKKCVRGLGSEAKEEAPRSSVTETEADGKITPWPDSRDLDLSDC

[4] = solubility in organic solvents; type: physicochemical; conditions: organic solvent or mixture, read-out: solubility in org. sol.
CB2 receptor [5] = target: T1, CB2 receptor; assay: saturation curve of 3H-WIN 55,212-2 binding to RBL-2H3 cell membranes; conditions: 3H-WIN 55,212-2 0.5 to 20 nM, 30 µg membrane proteins, 30°C 60 min
[6] = 10µM, 0.1% DMSO and 0.1% ethanol
[7] = Rattus norvegicus, + anandamide (12.5 µM)
[8] = Rattus norvegicus, RBL-2H3, inhibition of 3H-serotonin release, +anandamide (12.5 µM), read-out: ED50 (the source's name)
[9] = Rattus norvegicus, RBL-2H3, inhibition of 3H-serotonin release, -anandamide, read-out: ED50 (the source's name)
[10] = Rattus norvegicus, RBL-2H3, DMSO 0.2%
[11] = Rattus norvegicus, RBL-2H3, concentration inhibiting by 50% the net release of 3H serotonin, 0.2% DMSO, 15 minutes release period, means ± SEM, read-out: EC50

Compound: CCCCC/C=C\C/C=C\C/C=C\C/C=C\CCCC(=O)NCCO [Anandamide, arachidonylethanolamide, reference compound]
- Displacement (%) (CB2 receptor [1]): 95%
- Specific binding (CB2 receptor [1]): 99
- inhibition at 12.5 µM (RBL-2H3 cells; Rattus norvegicus, RBL-2H3, read-out: 3H-serotonin net release inhibition (%), 12.5µM, -WIN): 7%
- 3H-serotonin net release (%) (RBL-2H3 cells; concentration not given, 0.1% DMSO and 0.1% ethanol): 100%
- effect on serotonin release (RBL cells immunogenic activation) (RBL-2H3 cells): unable to affect serotonin release
- EC50 [2]: no effect (3)
- protective effect against cell death induced by glutamate ([2]; glutamate 500 µM, anandamide up to 100 µM): not effective
- affinity to the CB2 receptor, folds inferior to that of the central receptor (CB2 receptor [3]): 30 folds

Compound: C=C(C)[C@@H]1CCC(C)=C[C@H]1c1c(O)cc(CCCCC)cc1O [Cannabidiol, reference compound]
- IC50 (CB2 receptor [1]; IC50 (nM)): > 1000 nM

Compound: CCCCCCCCCCCCCCCC(=O)N[C@@H](CO)C(=O)O [Example 1, N-palmitoyl-L-serine]
- solubility ([4]; in DMSO): > 10000 µg/mL
- solubility ([4]; in ethanol): > 10000 µg/mL
- IC50 (CB2 receptor [1]; read-out: IC50): 0.04 nM and 0.05 nM
- Displacement (%) (CB2 receptor [1]): 100%
- 3H-serotonin net release (%) (RBL-2H3 cells; 100µM, 0.1% DMSO and 0.1% ethanol): 0%
- effect on serotonin release (RBL cells immunogenic activation) (RBL-2H3 cells): can inhibit the effects induced by mast cell activation
- water solubility (water solubility): slightly soluble

Compound: CCCCCCCCCCCCCCCC(=O)NCC(=O)O [Example 7, N-palmitoyl-glycine]
- solubility ([4]; in DMSO): > 10000 µg/mL
- Displacement (%) (CB2 receptor [1]): 79%
- Specific binding (CB2 receptor [1]): 297
- 3H-serotonin net release (%) (RBL-2H3 cells; [6]): 27%
- inhibition at 10 µM (RBL-2H3 cells; [7]): 24%
- inhibition at 10 µM (RBL-2H3 cells; Rattus norvegicus, -anandamide): 73%
- inhibition at 60 µM (RBL-2H3 cells; Rattus norvegicus, RBL-2H3, DMSO 0.2%, 60µM): 85%
- inhibition at 100 µM (RBL-2H3 cells; Rattus norvegicus, 100µM): 100%
- EC50 (RBL-2H3 cells; [8]): > 100 µM
- EC50 (RBL-2H3 cells; [9]): 4.8 µM
- EC50 (RBL-2H3 cells; Rattus norvegicus, RBL-2H3, inhibition of serotonin release, 0.1% DMSO and 0.1% ethanol, read-out: ED50 (µm)): 4.8 µM
- effect on serotonin release (RBL cells immunogenic activation) (RBL-2H3 cells): can inhibit the effects induced by mast cell activation
- water solubility (water solubility): slightly soluble

Compound: CCCCCCCCCCCCCCCC(=O)N[C@H]1C(O)O[C@H](CO)[C@@H](O)[C@@H]1O (stereo partly drawn) [Example 14, N-palmitoyl-D-glucosamine]
- solubility ([4]; in DMSO): > 1000 µg/mL
- inhibition at 20 µM (RBL-2H3 cells; [10]): 76%
- inhibition at 100 µM (RBL-2H3 cells; Rattus norvegicus, 100µM): 91%
- EC50 (RBL-2H3 cells; [11]): 1.28 ± 0.38 µM
- EC50 (RBL-2H3 cells; [8]): 3.3 µM
- EC50 (RBL-2H3 cells; [9]): 0.51 µM
- water solubility (water solubility): slightly soluble

Compound: CCCCCCCCCCCC(=O)N[C@H]1C(O)O[C@H](CO)[C@@H](O)[C@@H]1O (stereo partly drawn) [Example 15, N-lauroyl-D-glucosamine]
- solubility ([4]; in DMSO): > 5000 µg/mL
- inhibition at 20 µM (RBL-2H3 cells; [10]): 67%
- inhibition at 100 µM (RBL-2H3 cells; Rattus norvegicus, 100µM): 86%
- EC50 (RBL-2H3 cells; [11]): 12 µM
- water solubility (water solubility): slightly soluble

Compound: CCCCCCCC/C=C\CCCCCCCC(=O)N[C@H]1C(O)O[C@H](CO)[C@@H](O)[C@@H]1O (stereo partly drawn) [Example 16, N-oleoyl-D-glucosamine]
- solubility ([4]; in DMSO): > 5000 µg/mL
- inhibition at 20 µM (RBL-2H3 cells; [10]): 92%
- inhibition at 100 µM (RBL-2H3 cells; Rattus norvegicus, 100µM): 86%
- EC50 (RBL-2H3 cells; [11]): 2.4 ± 0.5 µM
- EC50 (RBL-2H3 cells; [8]): 4.2 µM
- EC50 (RBL-2H3 cells; [9]): 2.9 µM
- water solubility (water solubility): slightly soluble

Compound: CCCCCCC(C)(C)c1cc(O)c2c(c1)OC(C)(C)C1CCC(=O)CC21 (centres unmarked) [Nabilone, 3-(1,1-dimethylheptyl)-6,6a,7,8,10,10a-hexahydro-1-hydroxy-6,6-dimethyl-9H-dibenzo-[b,d]-pyran-9-one, reference compound]
- IC50 (CB2 receptor [1]; IC50 (nM)): 2.6 ± 1.4 nM
- Displacement (%) (CB2 receptor [1]): 100%
- 3H-serotonin net release (%) (RBL-2H3 cells; [6]): 0%
- inhibition at 5 µM (RBL-2H3 cells; [7]): 50%
- inhibition at 5 µM (RBL-2H3 cells; Rattus norvegicus, -anandamide): 90%
- EC50 (RBL-2H3 cells; Rattus norvegicus, RBL-2H3, read-out: ED50 (µM), inhibition of 3H-serotonin release, +anandamide (12.5 µM)): 5 µM
- EC50 (RBL-2H3 cells; Rattus norvegicus, RBL-2H3, read-out: ED50 (µM), inhibition of 3H-serotonin release, -anandamide): 2.8 µM
- EC50 (RBL-2H3 cells; Rattus norvegicus, RBL-2H3, read-out: ED50 (µm), inhibition of serotonin release, 0.1% DMSO and 0.1% ethanol): 2.8 µM
- effect on serotonin release (RBL cells immunogenic activation) (RBL-2H3 cells): able to inhibit, in a concentration-dependent way
- EC50 ([2]; Mus musculus, read-out: EC50): 3.9 ± 1.1 µM

Compound: Cc1c(C(=O)c2cccc3ccccc23)c2cccc3c2n1[C@H](CN1CCOCC1)CO3 [WIN 55,212-2, reference compound]
- Bmax (CB2 receptor [5]): 100 to 250 pM
- 3H-serotonin net release inhibition (%) (RBL-2H3 cells; 30µM, + anandamide (12.5 µM)): 36%
- 3H-serotonin net release inhibition (%) (RBL-2H3 cells; 30µM, -anandamide): 100%
- 3H-serotonin net release (%) (RBL-2H3 cells; 50µM, 0.1% DMSO and 0.1% ethanol): 0%
- 3H-serotonin net release inhibition (%) (RBL-2H3 cells; WIN 55,212-2 30 µm, + 12.5µM anandamide): 15%
- 3H-serotonin net release inhibition (%) (RBL-2H3 cells; WIN 55,212-2 30 µm, + 12.5µM arachidonic acid): 59%
- 3H-serotonin net release inhibition (%) (RBL-2H3 cells; WIN 55,212-2 30 µm, + 12.5µM ethanolamide + 12.5µM arachidonic acid): 61%
- 3H-serotonin net release inhibition (%) (RBL-2H3 cells; WIN 55,212-2 30 µm, + 12.5µM ethanolamine): 72%
- 3H-serotonin net release inhibition (%) (RBL-2H3 cells; WIN 55,212-2 30 µm, DNP.HSA alone): 69%
- EC50 (RBL-2H3 cells; inhibition of 3H-serotonin release, +anandamide (12.5 µM), read-out: ED50 (the source's name)): 40 µM
- EC50 (RBL-2H3 cells; inhibition of 3H-serotonin release, -anandamide, read-out: ED50 (the source's name)): 6.4 µM
- EC50 (RBL-2H3 cells; inhibition of serotonin release, 0.1% DMSO and 0.1% ethanol, read-out: ED50 (µm)): 6.4 µM
- effect on serotonin release (RBL cells immunogenic activation) (RBL-2H3 cells): able to inhibit, in a concentration-dependent way
